Results on 15 molecules are retold here after ChEMBL document CHEMBL4004870, “Synthesis of dihydroimidazole tethered imidazolinethiones and their activity as novel antagonists of the nuclear retinoic acid receptor-related orphan receptors (RORs)” (Bioorg Med Chem Lett, 2017).

Molecules are shown by their SMILES.

Assay [1] concerns the target T1, Nuclear receptor ROR-gamma (Mus musculus, UniProt P51450).
T1 sequence (P51450 whole entry): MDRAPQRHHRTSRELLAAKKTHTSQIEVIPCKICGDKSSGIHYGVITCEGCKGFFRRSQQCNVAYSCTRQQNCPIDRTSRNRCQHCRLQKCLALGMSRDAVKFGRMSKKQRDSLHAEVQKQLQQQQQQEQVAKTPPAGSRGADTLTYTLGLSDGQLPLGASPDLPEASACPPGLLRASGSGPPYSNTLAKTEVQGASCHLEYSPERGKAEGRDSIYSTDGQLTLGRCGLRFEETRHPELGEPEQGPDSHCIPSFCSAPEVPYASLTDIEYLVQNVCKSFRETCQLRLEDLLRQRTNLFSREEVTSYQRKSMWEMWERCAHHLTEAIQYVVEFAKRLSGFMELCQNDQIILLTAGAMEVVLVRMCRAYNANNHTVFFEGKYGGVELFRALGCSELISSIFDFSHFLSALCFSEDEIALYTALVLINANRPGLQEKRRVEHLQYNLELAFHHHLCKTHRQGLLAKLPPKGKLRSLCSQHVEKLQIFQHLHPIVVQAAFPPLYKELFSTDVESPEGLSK
Briefly: Antagonist activity at mouse Gal4-fused DBD RORgamma LBD (Pro-261-end) expressed in TRex-CHOK1 cells after 20 hrs by luciferase reporter gene assay. Type of assay: cell-based. On the technique in general: Reporter assays use an easily measured gene product as a stand-in for the process of interest.

Assay [2] addresses T2, Nuclear receptor ROR-beta (Rattus norvegicus, UniProt P45446).
T2 sequence (P45446 whole entry): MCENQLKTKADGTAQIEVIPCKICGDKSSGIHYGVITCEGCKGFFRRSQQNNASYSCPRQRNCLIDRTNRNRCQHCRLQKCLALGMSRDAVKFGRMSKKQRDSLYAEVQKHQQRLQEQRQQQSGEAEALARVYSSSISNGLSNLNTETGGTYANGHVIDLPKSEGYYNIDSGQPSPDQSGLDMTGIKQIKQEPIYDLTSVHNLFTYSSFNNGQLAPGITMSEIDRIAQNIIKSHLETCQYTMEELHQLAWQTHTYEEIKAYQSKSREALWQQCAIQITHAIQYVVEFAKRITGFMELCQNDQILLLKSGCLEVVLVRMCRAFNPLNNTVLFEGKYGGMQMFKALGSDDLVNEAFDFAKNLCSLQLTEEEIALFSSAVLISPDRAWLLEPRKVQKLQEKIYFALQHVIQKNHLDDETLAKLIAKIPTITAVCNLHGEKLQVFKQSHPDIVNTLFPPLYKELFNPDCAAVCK
Briefly: Antagonist activity at rat Gal4-fused DBD RORbeta LBD (Pro-205-end) expressed in TRex-CHOK1 cells after 20 hrs by luciferase reporter gene assay. It is filed as cell-based.

Usually IC50 stands for the concentration at which inhibition is half-maximal. Regarding `Fc1cccc(CC2=N[C@@H](CCCCN3C[C@H](Cc4ccccc4)N(CCc4ccccc4)C3=S)CN2)c1`, the IC50 in assay [1] was found to be 6.6 µM; in assay [2] it was 12.4 µM.
Consider `CCCC1=N[C@@H](CCCCN2C[C@H](Cc3ccccc3)N(CCC3CC4CCC3C4)C2=S)CN1` (stereo not given in full), for which the IC50 in assay [1] turned out to be 9.3 µM; in assay [2], 17 µM.
Consider `CCCC1=N[C@@H](CCCCN2C[C@@H](C(C)(C)C)N(CCc3ccccc3)C2=S)CN1`, for which the IC50 in assay [1] stood at 11.8 µM; in assay [2], 22.3 µM.
In the case of `S=C1N(CCCC[C@H]2CNC(CCC3CCCC3)=N2)C[C@H](Cc2ccccc2)N1CCc1ccccc1`, the IC50 in assay [1] was 5.6 µM; in assay [2] it was 9.1 µM.
Turning to `COc1cccc(CC2=N[C@@H](CCCCN3C[C@H](Cc4ccccc4)N(CCc4ccccc4)C3=S)CN2)c1`, the IC50 in assay [1] came out at 6.3 µM; in assay [2] it was 8.4 µM.
As for `C=CCC1=N[C@@H](CCCCN2C[C@H](Cc3ccccc3)N(CCc3ccccc3)C2=S)CN1`, the IC50 worked out at 10.2 µM in assay [1] and 14.3 µM in assay [2].
For `CC(CC1=N[C@@H](CCCCN2C[C@H](Cc3ccccc3)N(CCc3ccccc3)C2=S)CN1)c1ccccc1` (stereo not given in full), the IC50 in assay [1] was 6.5 µM; in assay [2], 10.9 µM.
The matching figures for `CCCC1=N[C@@H](CCCCN2C[C@H](Cc3ccccc3)N(CCC3C4CC5CC(C4)CC3C5)C2=S)CN1` (stereo not given in full): 7.9 µM and 10.7 µM.
As to `C/C=C/C1=N[C@@H](CCCCN2C[C@H](Cc3ccccc3)N(CCc3ccccc3)C2=S)CN1`, the IC50 in assay [1] was 5.8 µM; in assay [2], 12.5 µM.
As to `Fc1ccc(CC2=N[C@@H](CCCCN3C[C@H](Cc4ccccc4)N(CCc4ccccc4)C3=S)CN2)cc1`, the IC50 in assay [1] is 7.7 µM; in assay [2], 12.4 µM.
Regarding `Cc1cccc(CC2=N[C@@H](CCCCN3C[C@H](Cc4ccccc4)N(CCc4ccccc4)C3=S)CN2)c1`, the IC50 was 6.3 µM in assay [1] and 9 µM in assay [2].
With `CCCC[C@H]1CN(CCCC[C@H]2CNC(CCC)=N2)C(=S)N1CCc1ccccc1`, the IC50 in assay [1] was 10.2 µM; in assay [2] it was 17.5 µM.
For `CCCC1=N[C@@H](CCCCN2C[C@H](Cc3ccccc3)N(CC3CCC(C)CC3)C2=S)CN1` (stereo not given in full), the IC50 is 13.7 µM in assay [1] and 21.1 µM in assay [2].
For `S=C1N(CCCC[C@H]2CNC(CC3CCCCC3)=N2)C[C@H](Cc2ccccc2)N1CCc1ccccc1`, the figures for the IC50 in assay [1] and in assay [2] were 5.1 µM and 8.3 µM, respectively.
As for `CCCC1=N[C@@H](CCCCN2C[C@H](Cc3ccccc3)N(CCCC3CCCC3)C2=S)CN1`, the IC50 in assay [1] turned out to be 6.4 µM; in assay [2] it was 10.2 µM.
